Reference: patent US6642267B2, “Substituted 1,5-dihydropyrrol-2-one derivatives active as NMDA receptor antagonists for treatment of states of pain” (Gruenenthal GmbH, priority 1999, dated 2003)

Columns and labels:
[1] = tested on: formalin-induced nociceptive reaction (licking and biting of the paw); test: Formalin test in mice, second (late) phase; format: in vivo; settings: male NMRI mice
Description: The studies for determination of the antinociceptive action of substituted 1,5-dihydropyrrol-2-one derivatives according to the invention were carried out in the formalin test in male albino mice (NMRI, 25-35 g, Iffa Credo, Belgium).
In the formalin test, a distinction is made between the first (early) phase (0-15 min after formalin injection) and the second (late) phase (15-60 min after formalin injection) (D. Dubuisson et al, Pain 4, 161-174 (1977)). The early phase represents a model for acute pain, as a direct reaction to the formalin injection, while the late phase is regarded as a model for persistent (chronic) pain (T. J. Coderre et al, Pain, vol. 52, pp. 259-285 (1993).
The compounds according to the invention were investigated in the second phase of the formalin test to obtain information on substance actions on chronic/inflammatory pain.
By a single subcutaneous formalin injection (20 μl, 1% aqueous solution) into the dorsal side of the right hind paw of freely mobile test animals, a nociceptive reaction was induced, which manifests itself in significant licking and biting of the paw affected.
For the investigation period in the second (late) phase of the formalin test, the nociceptive behaviour was recorded continuously by observing the animals. […] After injection of substances which have an antinociceptive action in the formalin test, the modes of behaviour described for the animals are reduced, and possibly even eliminated.
In a manner corresponding to the substance tests, in which the animals received an injection of the test substance before formalin, the vehicle, i.e. solvent (e.g. 0.9% NaCl solution), was injected into the control animals before the administration of formalin. The behaviour of the animals after administration of the substance (10 mice per substance dosage) was compared with a control group (10 mice).
On the basis of the quantification of the pain properties, the action of the substance in the formalin test was determined as a change from the control in per cent. The ED50 calculations were made by means of regression analysis. […]

[2] = target: T1, glycine-binding site of the NMDA receptor channel (Rattus norvegicus, UniProt P35439); test: Receptor binding study, displacement of (3H)-MDL 105.519 in rat brain membrane homogenates; settings: rat cortex and hippocampus membrane homogenate; (3H)-MDL 105.519 radioligand; Ki from IC50 by Cheng-Prusoff
T1 construct: from tissue; host or cells: rat brain cortex and hippocampus membrane homogenate (male Wistar rats, Charles River)
Description: The studies for determination of the affinity of the substituted 1,5-dihydropyrrol-2-one derivatives of the general formula I for the glycine-binding site of the NMDA receptor channel were carried out on brain membrane homogenates (homogenate of the cortex and hippocampus area from the brain of male rats, Wistar strain, Charles River, WIGA GmbH, Sulzbach, Germany) by the method of Baron B. M. et al, J. Pharmacol. Exp. Ter., vol. 279, pp. 62-68 (1996).
Specifically, the cortex and hippocampus were exposed from freshly removed rat brains and homogenized in 5 mmol/l TRIS-acetate buffer, 0.32 mol/l sucrose pH 7.4 (10 ml/g fresh weight) with a Potter homogenizer (Braun, Melsungen, Germany, 10 plunger strokes at 500 revolutions per minute (rpm)), while cooling with ice, and the mixture was then centrifuged for 10 minutes at 1,000 g and 4° C. The first supernatant was collected and the sediment was homogenized again with 5 mmol/l TRIS-acetate buffer, 0.32 mol/l sucrose pH 7.4 (5 ml/g of original fresh weight of rat brain cortex and hippocampus) with the Potter homogenizer (10 plunger strokes at 500 rpm), while cooling with ice, and the mixture was centrifuged for 10 minutes at 1,000 g and 4° C. The resulting supernatant was combined with the supernatant from the first centrifugation and the mixture was centrifuged at 17,000 g for 20 minutes at 4° C. The supernatant after this centrifugation was discarded and the membrane sediment was taken up in 5 mmol/l TRIS-acetate buffer pH 8.0 (20 ml/g original fresh weight) and the mixture was homogenized with 10 plunger strokes at 500 rpm.
The membrane homogenate was then incubated for 1 hour at 4° C. and centrifuged for 30 minutes at 50,000 g and 4° C. The supernatant was discarded and the centrifuge tube with the membrane sediment was closed with Parafilm and frozen for 24 hours at −20° C. On the following day the membrane sediment was thawed and taken up in ice-cold 5 mmol/l TRIS-acetate buffer, 0.1% saponin (weight/volume) pH 7.0 (10 ml/g original fresh weight) and the mixture was homogenized with 10 plunger strokes at 500 rpm and then centrifuged for 20 minutes at 50,000 g and 4° C. The resulting supernatant was discarded and the sediment was taken up in a small volume of 5 mmol/l TRIS-acetate buffer pH 7.0 (approx. 2 ml/g original fresh weight) and the mixture was homogenized again with 10 plunger strokes at 500 rpm. After the protein content had been determined, the membrane homogenate was adjusted to a protein concentration of 10 mg protein/ml with 5 mmol/l TRIS-acetate buffer pH 7.0 and frozen in aliquots until the analysis was carried out.
For the receptor binding test, aliquots were thawed, diluted 1:10 with 5 mmol/l TRIS-acetate buffer pH 7.0 and homogenized with the Potter homogenizer with 10 plunger strokes at 500 rpm, while cooling with ice, and the mixture was centrifuged for 60 minutes at 55,000 g at 4° C. The supernatant was decanted and the membrane sediment was adjusted to a protein concentration of 1 mg/ml with ice-cold 50 mmol/l TRIS-acetate buffer pH 7.0 and the mixture was homogenized again with 10 plunger strokes at 500 rpm and kept in suspension while stirring on a magnetic stirrer in an ice-bath. In each case 100 μl of this membrane homogenate per 1 ml batch were employed in the receptor binding test (0.1 mg protein/ml in the final batch).
In the binding test, 50 mmol/l TRIS-acetate buffer pH 7.0 were employed as the buffer and […] (^3H)-MDL 105.519 (Baron B. M. at al, J. Pharmacol. Exp. Ther., vol 279, pp. 62-68 (1996)) was employed as the radioactive ligand. The content of non-specific binding was determined in the presence of 1 mmol/l glycine.
In further batches, the compounds according to the invention were added in concentration series and the displacement of the radioactive ligand from its specific binding to the glycine binding site of the NMDA receptor channel was determined. […]

Row | Structure (SMILES) | Ki [2] [µM] | melting point [°C] | % change with respect to the control at 10 mg/kg [1] [%]
1 | O=NC1=C(O)C(=Cc2ccccc2)NC1=O [Example 1, 5-Benzylidene-4-hydroxy-3-nitroso-1,5-dihydro-pyrrol-2-one] | – | – | 63.9
2 | COC1=C(N=O)C(=O)NC1=Cc1ccccc1 [Example 2, 5-Benzylidene-4-methoxy-3-nitroso-1,5-dihydropyrrol-2-one] | – | – | 36.3
3 | O=NC1=C(NCc2ccccc2)C(=Cc2ccccc2)NC1=O [Example 3, 4-Benzylamino-5-benzylidene-3-nitroso-1,5-dihydropyrrol-2-one] | 68 | – | 47.6
4 | O=NC1=C(Nc2ccccc2)C(=Cc2ccccc2)NC1=O [Example 4, 5-Benzylidene-3-nitroso-4-phenylamino-1,5-dihydropyrrol-2-one] | 72 | – | –
5 | CNC1=C(N=O)C(=O)NC1=Cc1ccccc1 [Example 5, 5-Benzylidene-4-methylamino-3-nitroso-1,5-dihydropyrrol-2-one] | 60 | – | –
6 | NC1=C(N=O)C(=O)NC1=Cc1ccccc1 [Example 6, 4-Amino-5-benzylidene-3-nitroso-1,5-dihydropyrrol-2-one] | 70 | – | –
7 | O=C1NC(=Cc2ccccc2)C(Nc2ccccc2)=C1[N+](=O)[O-] [Example 8, 5-Benzylidene-3-nitro-4-phenylamino-1,5-dihydropyrrol-2-one] | 9 | – | –

Further lines, with some results ahead:

Row | Ki [2] [µM] | melting point [°C] | Structure (SMILES) | % change with respect to the control at 10 mg/kg [1] [%]
8 | 5 | 218 | O=C1NC(=Cc2ccccc2)C(NCc2ccccc2)=C1[N+](=O)[O-] [Example 9, 4-Benzylamino-5-benzylidene-3-nitro-1,5-dihydropyrrol-2-one] | –
9 | 3 | 238 | CNC1=C([N+](=O)[O-])C(=O)NC1=Cc1ccccc1 [Example 10, 5-Benzylidene-4-methylamino-3-nitro-1,5-dihydropyrrol-2-one] | –
10 | 6 | > 260 | NC1=C([N+](=O)[O-])C(=O)NC1=Cc1ccccc1 [Example 11, 4-Amino-5-benzylidene-3-nitro-1,5-dihydropyrrol-2-one] | –
